Results on one compound are retold here after patent US20230149355A1, “COMPOSITIONS AND METHODS FOR MODULATING TRP CHANNEL ACTIVITY” (priority 2020, published 2023).

Assay [1] concerns the target human TRPA1 (Homo sapiens, UniProt O75762). The assay can be described thus: Ca2+ influx (Calcium 6 fluorescence) in human TRPA1 expressing HEK-293T cells. In kind it is cell-based. The protocol: (§1) HEK-293T cells were cultured in DMEM (Thermofisher Scientific, Waltham, Mass.) and supplemented with 10% fetal bovine serum (FBS) (Thermofisher Scientific), penicillin (100 units/mL) and streptomycin (0.1 mg/mL). Cells were plated on 100 mm tissue culture plates coated with poly-D-lysine (Sigma Aldrich, Saint Louis, Mo.) and grown to ˜60% confluence. The cells were transiently transfected for 16-24 hours with either human or mouse orthologs of TRPA1 using Fugene 6 transfection reagents and Opti-MEM (Thermofisher Scientific) according to the manufacturer's protocol. Subsequently, cells were trypsinized, re-suspended and re-plated onto poly-D-lysine coated 96-well plates (Krystal black walled plates, Genesee Scientific) at 5×10^5 cells/mL (100 μL/well) and allowed to grow for another 16-20 hrs prior to the experiments. Cells were maintained as monolayers in a 5% CO2 incubator at 37° C.
(§2) Measurements of changes in intracellular Ca^2+ concentrations ([Ca^2+]i) were performed as described previously (Caceres et al., 2017). In brief, cells in 96-well plates were loaded with Calcium 6, a no-wash fluorescent indicator, for 1.5 hrs (Molecular Devices, San Jose, Calif.) and then transferred to a FlexStation III benchtop scanning fluorometer chamber (Molecular Devices). Fluorescence measurements in the FlexStation were performed at 37° C. (Ex:485 nm, Em: 525 nm at every 1.8 s). After recording baseline fluorescence, agonists (indole, IAld, cinnamaldehyde) were added and fluorescence was monitored for a total of 60 s. […] The change in fluorescence was measured as Fmax-F0, where Fmax is the maximum fluorescence and F0 is the baseline fluorescence measured in each well.

Assay [2] deals with mouse duodenum. The assay can be described thus: Amperometric measurement of 5-HT secretion, mouse small intestine. Particulars: 10 mM Indole. From the text: (§3) These experiments using C57BL/6J mice were approved by the Flinders University Animal Welfare Committee (number 965-19) and human ileum tissue was collected from resected small and large intestine from patients that gave written informed consent under the approval of the Southern Adelaide Clinical Human Research Ethics Committee (number 50.07) as previous (Sun et al., 2019a). Mice were euthanized at 8 to 12 weeks by isoflurane overdose followed by cervical dislocation. The duodenum was removed and placed in Krebs solution oxygenated with 95% O2, 5% CO2. A midline incision was made along the duodenum to create a flat sheet, the section was pinned with the mucosal side up in an organ bath lined with Sylgard and containing oxygenated Krebs solution. Serotonin release was measured using amperometry. A carbon-fibre electrode (5-μm diameter, ProCFE; Dagan Corporation, Minneapolis, Minn.), was lowered above the mucosa and 400 mV potential was applied to the electrode causing oxidation of serotonin (Zelkas et al., 2015). […] The change in amplitude due to serotonin oxidation was recorded using an EPC-10 amplifier and Pulse software (HEKA Electronic, Lambrecht/Pfalz, Germany), and samples at 10 kHz and low-pass filtered at 1 kHz. Data was assessed as peak current during each treatment. Data was analyzed comparing all groups using one-way ANOVA with Tukey's post-hoc test. […]

Assay [3] deals with T1, mouse TRPA1 (Mus musculus, UniProt Q8BLA8).
T1 construct: expressed in transfected cells; host or cells: HEK-293T
The assay can be described thus: Ca2+ influx (Calcium 6 fluorescence) in mouse Trpa1-expressing HEK-293T cells. It counts as cell-based. The protocol: as §1, §2

Assay [4] deals with vagal sensory neurons. The assay can be described thus: In vivo calcium imaging of vagal sensory ganglia after microgavage. The arrangement: species or system zebrafish. The procedure: For delivering bacterial or chemicals specifically to the intestine, the established microgavage technique (Cocchiaro and Rawls, 2013) was adopted. Zebrafish were anesthetized with 1 mg/mL α-Bungarotoxin (α-BTX) and the gavage procedure was performed as previously described using microinjection station (Cocchiaro and Rawls, 2013). For bacteria gavage experiments, 1 ml of overnight bacterial culture was harvested, pelleted, washed with PBS and resuspended in 100 ul PBS.˜8 nl was then delivered into the zebrafish intestine using microgavage. The gavaged zebrafish was then transferred into egg water and mounted in 1% LMA for imaging. For chemical gavage experiments, ˜8 nl of AITC (100 mM), indole (1 mM) and IAld (1 mM) was gavaged into the intestine.
Tg(neurod1:Gcamp6f); Tg(neurod1:TagRFP) zebrafish were used to record vagal sensory ganglia calcium activity in vivo. Zebrafish were anesthetized with 1 mg/mL α-Bungarotoxin (α-BTX) and gavaged with chemical compounds or bacteria as described (Naumann et al., 2016). Zebrafish larvae were mounted in 1% LMA and imaged under a Zeiss 780 upright confocal microscope. Z-stack images of the entire vagal ganglia were collected as serial images at 10 mins/frame and processed in FIJI. Individual vagal sensory neurons were identified and the Gcamp6f to TagRFP fluorescence ratios of individual vagal sensory neurons were calculated.

Assay [5] concerns intestinal motility. The assay can be described thus: Zebrafish intestinal motility (PIV-Lab velocity analysis). The settings on record: indole stimulation. In kind it is in vivo.
Description: For EEC Trpa1 activation using the Optovin platform, zebrafish larvae were treated with 10 μM Optovin overnight. Following Optovin treatment, unanesthetized zebrafish were mounted in 1% LMA and imaged under a 780 upright Zeiss confocal microscope using 20× water objective lenses. For all the experiments, the mid-intestine region was imaged (FIG. 10D). The intestinal epithelium was selected as the region of interest (ROI) (FIG. 10A). Serial images were obtained at 1 s/frame. A 405 nm pulse of light was applied to the ROI at 1 pulse/10 s. For some experiments (FIG. 7D-F, FIG. 10B-G), the images were obtained at 10 s/frame.
The zebrafish intestinal motility is quantified through recorded image series of zebrafish intestine using the method similar as previously described (Ganz et al., 2018). Intestinal p velocity and v velocity were used to estimate intestinal motility in zebrafish as previously described using the PIV-Lab MATLAB app (Ganz et al., 2018). A positive value of the μ velocity indicates an anterograde intestinal movement and a negative value of the μ velocity indicates a retrograde intestinal movement. The time-course p velocity number is plotted as heatmaps. When calculating the mean velocity, only the mean velocity magnitude was calculated, which therefore doesn't account for the movement direction. The MTrackJ FIJI plugin was used to quantify the mean velocity magnitude (Meijering et al., 2012).
For assay [6], the system named is human ileum. The assay can be described thus: Amperometric measurement of 5-HT secretion, human small intestine. Particulars: 10 mM Indole.
Description: as §3

Sequence of human TRPA1 (O75762 whole entry): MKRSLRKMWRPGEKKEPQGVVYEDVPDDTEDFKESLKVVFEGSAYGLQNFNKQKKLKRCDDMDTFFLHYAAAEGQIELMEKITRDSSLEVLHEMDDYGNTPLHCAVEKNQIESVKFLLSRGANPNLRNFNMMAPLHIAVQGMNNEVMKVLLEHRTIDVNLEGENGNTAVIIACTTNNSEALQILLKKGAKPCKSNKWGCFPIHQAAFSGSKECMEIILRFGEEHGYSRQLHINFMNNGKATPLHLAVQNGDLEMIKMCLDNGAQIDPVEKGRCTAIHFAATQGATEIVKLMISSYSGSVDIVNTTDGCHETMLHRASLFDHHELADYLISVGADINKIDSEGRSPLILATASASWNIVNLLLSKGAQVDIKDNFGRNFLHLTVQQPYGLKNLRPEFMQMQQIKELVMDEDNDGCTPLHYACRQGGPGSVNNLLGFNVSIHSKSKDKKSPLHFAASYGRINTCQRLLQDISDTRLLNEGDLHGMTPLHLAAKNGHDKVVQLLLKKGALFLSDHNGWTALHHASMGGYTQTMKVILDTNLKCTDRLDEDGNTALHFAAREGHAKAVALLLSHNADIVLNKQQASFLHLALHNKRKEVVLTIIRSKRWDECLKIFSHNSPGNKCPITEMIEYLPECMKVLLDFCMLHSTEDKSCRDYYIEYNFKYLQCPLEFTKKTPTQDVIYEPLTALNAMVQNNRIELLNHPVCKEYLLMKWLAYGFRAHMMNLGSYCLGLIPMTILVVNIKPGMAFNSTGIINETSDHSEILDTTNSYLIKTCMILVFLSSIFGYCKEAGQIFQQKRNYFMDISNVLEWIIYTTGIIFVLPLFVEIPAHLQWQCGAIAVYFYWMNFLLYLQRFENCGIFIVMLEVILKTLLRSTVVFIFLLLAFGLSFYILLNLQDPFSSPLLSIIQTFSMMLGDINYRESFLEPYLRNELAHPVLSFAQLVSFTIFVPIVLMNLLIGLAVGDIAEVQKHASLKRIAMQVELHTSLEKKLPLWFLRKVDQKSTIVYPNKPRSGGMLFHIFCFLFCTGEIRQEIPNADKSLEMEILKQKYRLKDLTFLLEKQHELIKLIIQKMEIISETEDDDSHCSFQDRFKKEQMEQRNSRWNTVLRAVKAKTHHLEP
T1 sequence (Q8BLA8 whole entry): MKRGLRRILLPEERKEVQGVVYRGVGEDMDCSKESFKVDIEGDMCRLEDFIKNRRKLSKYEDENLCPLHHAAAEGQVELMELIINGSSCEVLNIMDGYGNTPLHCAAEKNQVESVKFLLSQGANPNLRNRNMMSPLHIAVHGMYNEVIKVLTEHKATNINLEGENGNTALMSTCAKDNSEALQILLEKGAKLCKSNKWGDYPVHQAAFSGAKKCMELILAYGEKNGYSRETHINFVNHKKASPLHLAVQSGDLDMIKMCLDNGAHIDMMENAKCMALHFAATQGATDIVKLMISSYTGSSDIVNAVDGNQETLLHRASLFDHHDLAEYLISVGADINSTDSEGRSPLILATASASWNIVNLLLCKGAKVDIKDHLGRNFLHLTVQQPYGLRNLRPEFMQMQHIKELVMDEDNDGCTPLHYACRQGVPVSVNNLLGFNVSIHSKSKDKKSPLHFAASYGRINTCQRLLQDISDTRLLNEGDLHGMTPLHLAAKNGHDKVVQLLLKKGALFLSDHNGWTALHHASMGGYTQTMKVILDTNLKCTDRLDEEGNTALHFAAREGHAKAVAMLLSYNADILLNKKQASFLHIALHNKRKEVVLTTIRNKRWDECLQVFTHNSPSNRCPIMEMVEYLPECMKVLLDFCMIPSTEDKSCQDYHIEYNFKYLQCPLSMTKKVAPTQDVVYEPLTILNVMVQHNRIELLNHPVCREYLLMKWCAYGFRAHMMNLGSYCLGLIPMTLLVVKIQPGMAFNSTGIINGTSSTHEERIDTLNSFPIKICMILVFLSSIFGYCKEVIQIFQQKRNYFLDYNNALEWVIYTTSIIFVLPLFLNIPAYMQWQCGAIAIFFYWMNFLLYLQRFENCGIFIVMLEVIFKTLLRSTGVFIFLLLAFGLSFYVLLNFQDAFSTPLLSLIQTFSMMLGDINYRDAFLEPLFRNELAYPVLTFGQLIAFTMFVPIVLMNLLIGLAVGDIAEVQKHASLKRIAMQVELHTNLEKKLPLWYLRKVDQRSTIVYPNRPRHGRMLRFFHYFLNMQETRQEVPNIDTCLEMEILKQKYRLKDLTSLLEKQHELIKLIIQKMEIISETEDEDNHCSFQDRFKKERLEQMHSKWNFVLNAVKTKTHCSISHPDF

Consider `c1ccc2[nH]ccc2c1` [Indole], for which the “Activation of human TRPA1 receptor transfected into HEK cells” value in assay [1] is “activated”. In addition, the figures for the EC50 in assay [1] and in assay [3] were 88.7 µM and 131 µM, respectively. Also, the TRPA1 agonist efficacy entry in assay [1] (efficiency comparable to cinnamaldehyde (CAD)) is “full TRPA1 agonist activity”. Moreover, the “5-HT secretion in mouse duodenum” value in assay [2] is “significant increase”. Further, the “Activation of mouse Trpa1” value in assay [3] (compared with human TRPA1) was “activated mouse Trpa1, but in a less potent manner”. Besides, in assay [4] (EEC-ablated zebrafish, enteric indole), the “Vagal sensory neuron activation in larvae lacking EECs” value was “abrogated”. Further, the “Gcamp6f fluorescence in a subset of vagal sensory neurons” value in assay [4] (WT, enteric microgavage ~8 nl, AITC 100 mM, indole 1 mM, IAld 1 mM) is recorded as “increased”. In assay [5], the “Intestinal motility on stimulation of zebrafish larvae” value was “increases intestinal motility”. The “5-HT secretion in human ileum” value in assay [6] is given as “significant increase”.

The term EC50 denotes the concentration needed to bring the measured effect to its halfway point.
